Like-named read-outs stand apart in the source and are kept apart here.
What was measured:
Assay type in all cases: in vivo
[1] = system: Alopecurus myosuroides (ALOMY); test: Pre-emergence herbicidal action against ALOMY; details: scored visually after about 3 weeks, 100% = plants have died
Summary of the method: (§1)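 Pre-emergence soil-surface spray of compound, formulated as wettable powder or emulsion concentrate, in aqueous suspension or emulsion with 0.5% additive (600 l/ha; rate 320 g/ha or less). Activity rated visually after roughly 3 weeks in the greenhouse as a percentage of untreated controls, 0% meaning no difference.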

[2] = system: Amaranthus retroflexus (AMARE); test: Pre-emergence herbicidal action against AMARE; details: visual scoring after about 3 weeks vs untreated controls
Summary of the method: as §1

[3] = system: Echinochloa crus-galli (ECHCG); test: Pre-emergence herbicidal action against ECHCG; details: dosage 320 g/ha
Summary of the method: as §1

[4] = system: Matricaria inodora (MATIN); test: Pre-emergence herbicidal action against MATIN
Summary of the method: as §1

[5] = system: Polygonum convolvulus (POLCO); test: Pre-emergence herbicidal action against POLCO
Summary of the method: as §1

Setaria viridis (SETVI) [6] = test: Pre-emergence herbicidal action against SETVI
Summary of the method: as §1

Glycine max (GLXMA) = details: pre-emergence, 80 g/ha, crop plant compatibility, in comparison to untreated controls
Summary of the method: (§2)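 Scoring: visual, % of untreated control, about 3 weeks after a pre-emergence application to the soil surface. Application used WP or EC formulations diluted in water with 0.5% additive at 600 l/ha; dosage levels are marked by suffixes a, b and c.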

Zea mays (ZEAMX) [7] = details: pre-emergence, crop plant compatibility, in comparison to untreated controls
Summary of the method: as §2

[8] = system: Abutilon theophrasti (ABUTH); test: Post-emergence herbicidal action against ABUTH; details: 320 g/ha, visual rating about 3 weeks after treatment vs untreated controls (100% = plants have died, 0% = like control plants)
Summary of the method: (§3)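 Post-emergence greenhouse spray, one-leaf stage, 600 l/ha water plus 0.5% additive; WP or EC formulations; application rates 320 g/ha or lower. Visual % damage vs untreated controls at ~3 weeks.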

[9] = system: Amaranthus retroflexus (AMARE); test: Post-emergence herbicidal action against AMARE
Summary of the method: as §3

[10] = system: Echinochloa crus-galli (ECHCG); test: Post-emergence herbicidal action against ECHCG; details: dosage 320 g/ha
Summary of the method: as §3

Lolium rigidum (LOLRI) [11] = test: Post-emergence herbicidal action against LOLRI; details: dosage 320 g/ha
Summary of the method: as §3

[12] = system: Matricaria inodora (MATIN); test: Post-emergence herbicidal action against MATIN
Summary of the method: as §3

[13] = system: Pharbitis purpurea (PHBPU); test: Post-emergence herbicidal action against PHBPU
Summary of the method: as §3

[14] = system: Polygonum convolvulus (POLCO); test: Post-emergence herbicidal action against POLCO; details: dosage 320 g/ha
Summary of the method: as §3

Setaria viridis (SETVI) [15] = test: Post-emergence herbicidal action against SETVI
Summary of the method: as §3

[16] = system: Verconica persica (VERPE); test: Post-emergence herbicidal action against VERPE
Summary of the method: as §3

Brassica napus (BRSNW) = details: crop plant compatibility, in comparison to untreated controls
Summary of the method: as §2

Oryza sativa (ORYSA) [17] = details: pre-emergence, crop plant compatibility, in comparison to untreated controls
Summary of the method: as §2

[18] = system: Triticum aestivum (TRZAS); details: crop plant compatibility; for Pre-emergence action against TRZAS in %: in comparison to untreated controls
Summary of the method: as §2

Oryza sativa (ORYSA) [19] = details: crop plant compatibility
Summary of the method: (§4)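 Effects were read visually as % versus untreated controls (0% = no effect, 100% = death) about 3 weeks post-treatment. Application was a post-emergence spray at the one-leaf stage of WP/EC formulations with 0.5% additive at 600 l/ha. Different dosages are denoted a, b and c.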

[20] = system: Triticum aestivum (TRZAS); details: crop plant compatibility, 80 g/ha, effect vs untreated controls
Summary of the method: as §4

Zea mays (ZEAMX) [21] = details: crop plant compatibility, effect vs untreated controls
Summary of the method: as §4

[22] = system: Abutilon theophrasti (ABUTH); test: Pre-emergence herbicidal action against ABUTH; details: Dosage column 320 g/ha (title prints 3200 g/ha); scored visually after about 3 weeks; 100% = plants have died
Summary of the method: as §1

Avena fatua (AVEFA) = test: Pre-emergence herbicidal action against AVEFA; details: visual scoring after about 3 weeks vs untreated controls
Summary of the method: as §1

[23] = system: Digitaria sanguinalis (DIGSA); test: Pre-emergence herbicidal action against DIGSA
Summary of the method: as §1

Lolium rigidum (LOLRI) [24] = test: Pre-emergence herbicidal action against LOLRI
Summary of the method: as §1

[25] = system: Pharbitis purpurea (PHBPU); test: Pre-emergence herbicidal action against PHBPU; details: dosage 320 g/ha
Summary of the method: as §1

[26] = system: Verconica persica (VERPE); test: Pre-emergence herbicidal action against VERPE; details: dosage 320 g/ha
Summary of the method: as §1

Viola tricolor (VIOTR) [27] = test: Pre-emergence herbicidal action against VIOTR
Summary of the method: as §1

[28] = system: Alopecurus myosuroides (ALOMY); test: Post-emergence herbicidal action against ALOMY; details: visual rating about 3 weeks after treatment vs untreated controls (100% = plants have died, 0% = like control plants)
Summary of the method: as §3

[29] = system: Digitaria sanguinalis (DIGSA); test: Post-emergence herbicidal action against DIGSA; details: visual rating about 3 weeks after treatment
Summary of the method: as §3

Viola tricolor (VIOTR) [30] = test: Post-emergence herbicidal action against VIOTR; details: 320 g/ha
Summary of the method: as §3

[31] = 80 g/ha, effect in comparison to untreated controls
[32] = 320 g/ha, effect in comparison to untreated controls
[33] = 20 g/ha, effect vs untreated controls

COC(=O)CCOC(=O)COc1nn(-c2ccccn2)c(-c2ccc(F)nc2)c1F [Example I-309]
10%: Pre-emergence action against ZEAMX in % (Zea mays (ZEAMX) [7]; 320 g/ha)
0%: Pre-emergence action against GLXMA in % (Glycine max (GLXMA)) | Pre-emergence action against ZEAMX in % (Zea mays (ZEAMX) [7]; 80 g/ha)
80%: Pre-emergence action against ECHCG in % [3] | Pre-emergence action against POLCO in % ([5]; dosage 320 g/ha) | Post-emergence action against ABUTH in % [8] | Post-emergence action against MATIN in % ([12]; dosage 320 g/ha) | Post-emergence action against PHBPU in % ([13]; dosage 80 g/ha) | Post-emergence action against POLCO in % [14] | Post-emergence action against VERPE in % ([16]; 320 g/ha, VERPE) | Post-emergence action against VERPE in % ([16]; dosage 80 g/ha)
90%: Pre-emergence action against ALOMY ([1]; 320 g/ha) | Pre-emergence action against AMARE in % ([2]; 320 g/ha) | Pre-emergence action against MATIN in % ([4]; dosage 320 g/ha) | Pre-emergence action against SETVI in % (Setaria viridis (SETVI) [6]; dosage 320 g/ha) | Post-emergence action against AMARE in % ([9]; 80 g/ha, visual rating about 3 weeks after treatment vs untreated controls (100% = plants have died, 0% = like control plants)) | Post-emergence action against AMARE in % ([9]; 320 g/ha, visual rating about 3 weeks after treatment) | Post-emergence action against ECHCG in % [10] | Post-emergence action against LOLRI in % (Lolium rigidum (LOLRI) [11]) | Post-emergence action against PHBPU in % ([13]; dosage 320 g/ha) | Post-emergence action against SETVI in % (Setaria viridis (SETVI) [15]; dosage 320 g/ha)

CC(=O)CNC(=O)COc1nn(-c2ccnc(F)c2)c(-c2ccc(F)nc2)c1Br [III-07]
0%: Pre-emergence action against BRSNW in % (Brassica napus (BRSNW); 80 g/ha) | Pre-emergence action against ORYSA in % (Oryza sativa (ORYSA) [17]; 80 g/ha) | Pre-emergence action against TRZAS in % ([18]; 80 g/ha) | Pre-emergence action against TRZAS in % ([18]; 320 g/ha) | Pre-emergence action against ZEAMX in % (Zea mays (ZEAMX) [7]; 80 g/ha) | Post-emergence action against ORYSA in % (Oryza sativa (ORYSA) [19]; [31]) | Post-emergence action against ORYSA in % (Oryza sativa (ORYSA) [19]; [32]) | Post-emergence action against TRZAS in % [20] | Post-emergence action against ZEAMX in % (Zea mays (ZEAMX) [21]; 80 g/ha) | Post-emergence action against ZEAMX in % (Zea mays (ZEAMX) [21]; 320 g/ha)
20%: Pre-emergence action against ORYSA in % (Oryza sativa (ORYSA) [17]; 320 g/ha)
10%: Pre-emergence action against ZEAMX in % (Zea mays (ZEAMX) [7]; 320 g/ha)
80%: Pre-emergence action against ALOMY ([1]; 320 g/ha) | Post-emergence action against ABUTH in % [8]

COC(=O)[C@@H](C)Oc1nn(-c2ncccc2F)c(-c2cncc(F)c2)c1Br [Example I-15]
80%: Pre-emergence action against AVEFA in % (Avena fatua (AVEFA); 80 g/ha) | Pre-emergence action against PHBPU in % [25] | Post-emergence action against LOLRI in % (Lolium rigidum (LOLRI) [11]) | Post-emergence action against MATIN in % ([12]; dosage 80 g/ha) | Post-emergence action against SETVI in % (Setaria viridis (SETVI) [15]; dosage 80 g/ha) | Post-emergence action against VERPE in % ([16]; 320 g/ha, VERPE) | Post-emergence action against VERPE in % ([16]; dosage 80 g/ha) | Post-emergence action against VIOTR in % (Viola tricolor (VIOTR) [30])
10%: Pre-emergence action against BRSNW in % (Brassica napus (BRSNW); 20 g/ha) | Pre-emergence action against TRZAS [18, 33] | Post-emergence action against ORYSA in % (Oryza sativa (ORYSA) [19]; [31])
0%: Post-emergence action against ORYSA in % (Oryza sativa (ORYSA) [19]; [33])
90%: Pre-emergence action against ABUTH [22] | Pre-emergence action against ECHCG in % [3] | Pre-emergence action against LOLRI in % (Lolium rigidum (LOLRI) [24]; dosage 80 g/ha) | Pre-emergence action against POLCO in % ([5]; dosage 80 g/ha) | Post-emergence action against ALOMY in % ([28]; 80 g/ha) | Post-emergence action against ALOMY in % ([28]; 320 g/ha) | Post-emergence action against DIGSA in % ([29]; 80 g/ha) | Post-emergence action against DIGSA in % ([29]; 320 g/ha) | Post-emergence action against MATIN in % ([12]; dosage 320 g/ha) | Post-emergence action against PHBPU in % ([13]; dosage 320 g/ha) | Post-emergence action against SETVI in % (Setaria viridis (SETVI) [15]; dosage 320 g/ha)
100%: Pre-emergence action against ALOMY ([1]; 80 g/ha) | Pre-emergence action against ALOMY ([1]; 320 g/ha) | Pre-emergence action against AMARE in % ([2]; 80 g/ha) | Pre-emergence action against AMARE in % ([2]; 320 g/ha) | Pre-emergence action against AVEFA in % (Avena fatua (AVEFA); 320 g/ha) | Pre-emergence action against DIGSA in % ([23]; 80 g/ha, visual scoring after about 3 weeks vs untreated controls) | Pre-emergence action against DIGSA in % ([23]; dosage 320 g/ha) | Pre-emergence action against LOLRI in % (Lolium rigidum (LOLRI) [24]; dosage 320 g/ha) | Pre-emergence action against MATIN in % ([4]; dosage 80 g/ha) | Pre-emergence action against MATIN in % ([4]; dosage 320 g/ha) | Pre-emergence action against POLCO in % ([5]; dosage 320 g/ha) | Pre-emergence action against SETVI in % (Setaria viridis (SETVI) [6]; dosage 80 g/ha) | Pre-emergence action against SETVI in % (Setaria viridis (SETVI) [6]; dosage 320 g/ha) | Pre-emergence action against VERPE in % [26] | Pre-emergence action against VIOTR in % (Viola tricolor (VIOTR) [27]; 320 g/ha, Viola tricolor) | Pre-emergence action against VIOTR in % (Viola tricolor (VIOTR) [27]; dosage 80 g/ha)

C[C@@H](Oc1nn(-c2ccccn2)c(-c2ccc(Cl)nc2)c1Br)C(=O)O [Example I-240]
0%: Post-emergence action against ORYSA in % (Oryza sativa (ORYSA) [19]; [31]) | Post-emergence action against ORYSA in % (Oryza sativa (ORYSA) [19]; [32])
10%: Post-emergence action against ZEAMX in % (Zea mays (ZEAMX) [21]; 80 g/ha)
90%: Pre-emergence action against ALOMY ([1]; 320 g/ha) | Pre-emergence action against AMARE in % ([2]; 320 g/ha) | Pre-emergence action against DIGSA in % ([23]; dosage 320 g/ha) | Pre-emergence action against LOLRI in % (Lolium rigidum (LOLRI) [24]; dosage 320 g/ha) | Pre-emergence action against VIOTR in % (Viola tricolor (VIOTR) [27]; 320 g/ha, Viola tricolor)
20%: Pre-emergence action against GLXMA in % (Glycine max (GLXMA)) | Post-emergence action against ZEAMX in % (Zea mays (ZEAMX) [21]; 320 g/ha)
80%: Post-emergence action against ALOMY in % ([28]; 320 g/ha) | Post-emergence action against LOLRI in % (Lolium rigidum (LOLRI) [11]) | Post-emergence action against POLCO in % [14] | Post-emergence action against VIOTR in % (Viola tricolor (VIOTR) [30])

Source: patent US20240041042A1, “1-(PYRIDYL)-5-AZINYLPYRAZOLE DERIVATIVES, AND THEIR USE FOR CONTROL OF UNDESIRED PLANT GROWTH” (Bayer Aktiengesellschaft, priority 2020, published 2024)
